# Experimental data: patent US12404261B2, “Compounds and compositions for treating conditions associated with cGAS” (Novartis AG, priority 2020, dated 2025)
# pIC50: −log10 of the molar value.
# Molecular target: human truncated cGAS enzyme (147-522 human cGAS) (Homo sapiens (Human), UniProt Q8N884)
# Assay: Quantification of cGAS protein inhibition (cGAMP formation measured by LC-MS/MS)
# Assay type: biochemical
# Details: reported for the potential mixture of co-existing tautomers and/or racemates
# Description: A reagent buffer was prepared in filtered and autoclaved water according to the following: • 50 mM Tris-buffer pH 7.5 (1 M Tris-buffer pH 7.5, Invitrogen, Cat. No. 15567-027); • 50 mM NaCl (5 M NaCl, Sodium Chloride Solution, Sigma, 59222C-); • 5 mM MgCl2 (1 M MgCl2, Sigma, M1028); • 0.1 mM ZnCl2 (Zinc Chloride [7646-85-7], powder, Cell Culture Tested, Sigma, Z-0152); and • 0.001% Tween 20 (TWEEN 20, Sigma Aldrich, P1379-).
# A buffer for the cGAS enzyme was prepared in filtered and autoclaved water according to the following: • 50 mM Tris-buffer pH 7.5; • 5 mM MgCl2; and • 0.001% Tween 20.
# Compounds were dispensed to a […]. The human truncated cGAS enzyme (4.2 mg/mL 147-522 human cGAS, MW 43,909 g/mol) was stored in 50 mM Tris, 500 mM NaCl, 5% (v/v) glycerol at pH 8 and diluted in the cGAS buffer enzyme shortly before use. The enzyme solution was transferred into the reagent buffer to give a final concentration of 30 nM. The reaction was started by mixing the enzyme with ISD (a 45 bp double stranded DNA, MW 27,670 g/mol, 5 mM), GTP and ATP to a final concentration of 5 μM, 0.5 mM and 0.5 mM respectively in a final volume of 10 μl. The reaction plates were then centrifuged at 1000 rpm for 1 minute and incubated at room temperature for 1 h. After 1 h of incubation, [^5Ns]-2′3′-cGAMP to a final concentration of 200 nM and 30 μL of 100% acetonitrile/0.175% of TFA were added to the reaction mixture. The plates were centrifuged at 1000 rpm for 1 minute before being sealed for 3 seconds at 170° C. using a ThermoScientific sealer (ALPS™ 50V) and an aluminum sealing cover (Pierce Seal, 4titude, Product Code: 4TI-0531).
# The concentration of cGAMP was measured on a LC-MS/MS system consisting of a THERMO Dionex Ultimate LC system with a high pressure pump, an autosampler, a column heating compartment (Reinach, Switzerland) and a SCIEX Triple Quad 5500 (Framingham, MA, USA) mass spectrometer for detection. The sample plates were centrifuged for 10 minutes at 2000 rpm. Up to three plates were placed in the autosampler for injection. An aliquot of 10 μL of each sample was injected on an XBridge BEH Amide 3.5 μm, 2.1×50 mm column (P/N 186004859) with an XBridge BEH Amide 5 μm 2.1×5 mm VanGuard Cartridge (P/N 186007760) pre-column (both WATERS, MA, USA) held at 40° C. An isocratic flow of 1.0 mL/min solvent (60% ACN, 8 mM ammonium acetate, 5 mM ammonium hydroxide, 0.04% acetic acid) was applied and sprayed into the ion source of the mass spectrometers. The MS parameters were optimized based on the properties of the compounds to be detected and run in positive multi-reaction mode (MRM) based on the mass transitions. LC and MS parameters were also optimized to allow for a sample-to-sample measuring time of approximately 75 sec and a run time of 8 hours per 384-well plate. All data were analyzed with Excel; and the dose response curves were generated using the auto fitting function of XLfit. The IC50 was determined by plotting the cGAMP concentration ratio (cGAMP divided by the internal standard [^15Ns]-2′3′-cGAMP) versus the concentration of compound.
# Sequence of human truncated cGAS enzyme (147-522 human cGAS) (Q8N884 147-522): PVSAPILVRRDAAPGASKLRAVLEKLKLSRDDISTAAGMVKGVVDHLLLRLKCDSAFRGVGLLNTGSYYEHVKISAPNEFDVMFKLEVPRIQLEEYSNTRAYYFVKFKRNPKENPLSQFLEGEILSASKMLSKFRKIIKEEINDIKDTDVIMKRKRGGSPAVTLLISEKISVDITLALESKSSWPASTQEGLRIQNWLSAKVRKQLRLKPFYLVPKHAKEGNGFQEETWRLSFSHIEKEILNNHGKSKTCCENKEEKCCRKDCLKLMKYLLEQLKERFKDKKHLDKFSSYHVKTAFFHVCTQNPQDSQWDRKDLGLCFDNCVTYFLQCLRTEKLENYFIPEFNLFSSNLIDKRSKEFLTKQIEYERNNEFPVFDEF
row,pIC50,Structure (SMILES)
1,7.26,"COCC(F)(F)c1nnc(-c2c(-n3ccnc3)c3cc(OC)c(Cl)c(C#N)c3n2C)[nH]1 [Example 55, 6-chloro-2-(5-(1,1-difluoro-2-methoxyethyl)-4H-1,2,4-triazol-3-yl)-3-(1H-imidazol-1-yl)-5-methoxy-1-methyl-1H-indole-7-carbonitrile]"
2,7.25,"COc1cc2c(-n3ccnc3)c(-c3nnc(CS(C)(=O)=O)[nH]3)n(C)c2c(F)c1Cl [Example 56, 6-Chloro-7-fluoro-3-(1H-imidazol-1-yl)-5-methoxy-1-methyl-2-(5-((methylsulfonyl)methyl)-4H-1,2,4-triazol-3-yl)-1H-indole]"
3,7.52,"COCC(=O)c1nnc(-c2[nH]c3c(F)c(Cl)c(OC)cc3c2-c2cn[nH]c2)[nH]1 [Example 57, 1-(5-(6-chloro-7-fluoro-5-methoxy-3-(1H-pyrazol-4-yl)-1H-indol-2-yl)-4H-1,2,4-triazol-3-yl)-2-methoxyethan-1-one]"
4,7.52,"COc1cc2c(-c3cn[nH]c3)c(-c3nnc(F)[nH]3)n(C)c2c(F)c1Cl [Example 58, 6-chloro-7-fluoro-2-(5-fluoro-4H-1,2,4-triazol-3-yl)-5-methoxy-1-methyl-3-(1H-pyrazol-4-yl)-1H-indole]"
5,7.11,"COc1cc2c(-c3cn[nH]c3)c(-c3nnc(N4CCOCC4)[nH]3)n(C)c2c(F)c1Cl [Example 59, 4-(5-(6-chloro-7-fluoro-5-methoxy-1-methyl-3-(1H-pyrazol-4-yl)-1H-indol-2-yl)-4H-1,2,4-triazol-3-yl)morpholine]"
6,7.49,"COc1cc2c(-c3cn[nH]c3)c(-c3nnc(C(C)=O)[nH]3)n(C)c2c(F)c1Cl [Example 60, 1-(5-(6-chloro-7-fluoro-5-methoxy-1-methyl-3-(1H-pyrazol-4-yl)-1H-indol-2-yl)-4H-1,2,4-triazol-3-yl)ethan-1-one]"
7,7.39,"COc1cc2c(-c3cn[nH]c3)c(-c3nnc(N(C)C(C)=O)[nH]3)n(C)c2c(F)c1Cl [Example 61, N-(5-(6-chloro-7-fluoro-5-methoxy-1-methyl-3-(1H-pyrazol-4-yl)-1H-indol-2-yl)-4H-1,2,4-triazol-3-yl)-N-methylacetamide]"
8,7.22,"COCC(=O)N(C)c1nnc(-c2c(-c3cn[nH]c3)c3cc(OC)c(Cl)c(F)c3n2C)[nH]1 [Example 62, N-(5-(6-chloro-7-fluoro-5-methoxy-1-methyl-3-(1H-pyrazol-4-yl)-1H-indo1-2-yl)-4H-1,2,4-triazol-3-yl)-2-methoxy-N-methylacetamide]"
9,7.27,"COc1cc2c(-c3cn[nH]c3)c(-c3nnc(N(C)CCO)[nH]3)n(C)c2c(F)c1Cl [Example 63, 2-((5-(6-chloro-7-fluoro-5-methoxy-l-methyl-3-(1H-pyrazol-4-yl)-1H-indol-2-yl)-4H-1,2,4-triazol-3-yl)(methyl)amino)ethan-1-ol]"
10,7.28,"COCC(O)c1nnc(-c2c(-c3cn[nH]c3)c3cc(OC)c(Cl)c(F)c3n2C)[nH]1 (stereo not shown) [Example 64, 1-(5-(6-chloro-7-fluoro-5-methoxy-1-methyl-3-(1H-pyrazol-4-yl)-1H-indol-2-yl)-4H-1,2,4-triazol-3-yl)-2-methoxyethan-1-ol]"
11,7.51,"COCC(F)(F)c1nnc(-c2[nH]c3c(F)c(Cl)c(OC)cc3c2-c2cn[nH]c2)[nH]1 [Example 65, 6-chloro-2-(5-(1,1-difluoro-2-methoxyethyl)-4H-1,2,4-triazol-3-yl)-7-fluoro-5-methoxy-3-(1H-pyrazol-4-yl)-1H-indole]"
12,7.52,"COCC(F)(F)c1nnc(-c2c(-c3cn[nH]c3)c3cc(OC)c(Cl)c(F)c3n2C)[nH]1 [Example 66, 6-chloro-2-(5-(1,1-difluoro-2-methoxyethyl)-4H-1,2,4-triazol-3-yl)-7-fluoro-5-methoxy-1-methyl-3-(1H-pyrazol-4-yl)-1H-indole]"
13,7.52,"COc1cc2c(-c3cn[nH]c3)c(-c3nnc(C(C)(F)F)[nH]3)[nH]c2c(F)c1Cl [Example 67, 6-chloro-2-(5-(1,1-difluoroethyl)-4H-1,2,4-triazol-3-yl)-7-fluoro-5-methoxy-3-(1H-pyrazol-4-yl)-1H-indole]"
14,7.48,"COc1cc2c(-c3cn[nH]c3)c(-c3nnc(C(C)(F)F)[nH]3)n(C)c2c(F)c1Cl [Example 68, 6-chloro-2-(5-(1,1-difluoroethyl)-4H-1,2,4-triazol-3-yl)-7-fluoro-5-methoxy-1-methyl-3-(1H-pyrazol-4-yl)-1H-indole]"
15,7.42,"COc1cc2c(-c3cn[nH]c3)c(-c3nnc(C(F)(F)CO)[nH]3)n(C)c2c(F)c1Cl [Example 69, 2-(5-(6-chloro-7-fluoro-5-methoxy-1-methyl-3-(1H-pyrazol-4-yl)-1H-indol-2-yl)-4H-1,2,4-triazol-3-yl)-2,2-difluoroethan-1-ol]"
16,7.41,"COCC(F)c1nnc(-c2c(-c3cn[nH]c3)c3cc(OC)c(Cl)c(F)c3n2C)[nH]1 (stereo not shown) [Example 70, 6-chloro-7-fluoro-2-(5-(1-fluoro-2-methoxyethyl)-4H-1,2,4-triazol-3-yl)-5-methoxy-1-methyl-3-(1H-pyrazol-4-yl)-1H-indole]"
17,7.36,"COc1cc2c(-c3cn[nH]c3)c(-c3nnc(C(C)F)[nH]3)[nH]c2c(F)c1Cl (stereo not shown) [Example 71, 6-chloro-7-fluoro-2-(5-(1-fluoroethyl)-4H-1,2,4-triazol-3-yl)-5-methoxy-3-(1H-pyrazol-4-yl)-1H-indole]"
18,7.21,"COc1cc2c(-c3cn[nH]c3)c(-c3nnc(C(C)F)[nH]3)n(C)c2c(F)c1Cl (stereo not shown) [Example 72, 6-chloro-7-fluoro-2-(5-(1-fluoroethyl)-4H-1,2,4-triazol-3-yl)-5-methoxy-1-methyl-3-(1H-pyrazol-4-yl)-1H-indole]"
19,7.52,"COCC(F)(F)c1nnc(-c2c(-c3cn[nH]c3)c3cc(OC)c(Cl)c(C#N)c3n2C)[nH]1 [Example 73, 6-chloro-2-(5-(1,1-difluoro-2-methoxyethyl)-4H-1,2,4-triazol-3-yl)-5-methoxy-1-methyl-3-(1H-pyrazol-4-yl)-1H-indole-7-carbonitrile]"
20,6.68,"CCOc1cc2c(-c3cn[nH]c3)c(-c3nnc(C(C)=O)[nH]3)n(C)c2c(F)c1Cl [Example 74, 1-(5-(6-chloro-5-ethoxy-7-fluoro-1-methyl-3-(1H-pyrazol-4-yl)-1H-indo1-2-yl)-4H-1,2,4-triazol-3-yl)ethan-1-one]"
21,5.38,"Oc1cc(-c2c(-c3nnc(C(F)(F)F)[nH]3)[nH]c3c(Cl)c(Cl)ccc23)n[nH]1 [Example 76, 3-(6,7-dichloro-2-(5-(trifluoromethyl)-4H-1,2,4-triazol-3-yl)-1H-indol-3-yl)-1H-pyrazol-5-ol]"
22,5.73,"Oc1cc(-c2c(-c3nnc(C(F)(F)F)[nH]3)[nH]c3c(Cl)c(Cl)ccc23)no1 [Example 77, 3-(6,7-dichloro-2-(5-(trifluoromethyl)-4H-1,2,4-triazol-3-yl)-1H-indol-3-yl)isoxazol-5-ol]"
23,5.43,"FC(F)(F)c1nnc(-c2[nH]c3c(Cl)c(Cl)ccc3c2-c2cc[nH]n2)[nH]1 [Example 78, 6,7-dichloro-3-(1H-pyrazol-3-yl)-2-(5-(trifluoromethyl)-4H-1,2,4-triazol-3-yl)-1H-indole]"
24,7.41,"COc1cc2c(-c3cn[nH]c3)c(-c3nnc(C(C)N(C)C)[nH]3)n(C)c2c(F)c1Cl (stereo not shown) [Example 80, 1-(5-(6-chloro-7-fluoro-5-methoxy-1-methyl-3-(1H-pyrazol-4-yl)-1H-indol-2-yl)-4H-1,2,4-triazol-3-yl)-N,N-dimethylethan-1-amine]"
25,7.04,"COCC(c1nnc(-c2c(-c3cn[nH]c3)c3cc(OC)c(Cl)c(F)c3n2C)[nH]1)N(C)C (stereo not shown) [Example 81, 1-(5-(6-chloro-7-fluoro-5-methoxy-1-methyl-3-(1H-pyrazol-4-yl)-1H-indol-2-yl)-4H-1,2,4-triazol-3-yl)-2-methoxy-N,N-dimethylethan-1-amine]"
